What is called inhibition is how much of the control response was suppressed. Broadly, the IC50 is the midpoint of a concentration-inhibition curve.

Read-outs that look alike come from different tables or passages of the source.

Assay [1] concerns the target T1, AChE (Homo sapiens, UniProt P22303).
T1 construct: purchased Sigma Inc
Put plainly: biochemical. The assay is classed as biochemical. To be noted: for inhibition at 500 µM: read-out: AChE Inhibition, Inhibition (%) at 0.5 mM. On the procedure: (§1) The AChE and BChE inhibition activity was performed according to the method of Ellman with slight modifications. Total volume of the reaction mixture was 100 µL contained 60 µL Na2HPO4 buffer with concentration of 50 mM and pH 7.7. A 10 µL test compound (0.5 mM per well) was added, followed by the addition of 10 µL enzyme (0.005 unit AChE, 0.5 unit BChE per well, Sigma Inc). […] The reaction was initiated by the addition of 10 µL of 0.5 mM per well substrate (acetylthiocholine iodide or butyrylthiocholine bromide), followed by the addition of 10 µL DTNB (0.5 mM per well). […] Synergy HT (BioTek, USA) 96-well plate reader was used in all experiments. All experiments were carried out with their respective controls in triplicate. […] The percent inhibition was calculated by the help of following equation.
(§2) Inhibition%=Control−Test/Control×100

Assay [2] addresses T2, BChE (Homo sapiens, UniProt P06276).
T2 construct: purchased Sigma Inc
Kind of assay: BChE inhibition assay (Ellman method with slight modifications). The assay is classed as biochemical. As to conditions: for inhibition at 500 µM: read-out: BChE Inhibition, Inhibition (%) at 0.5 mM. As to the method: as §1, §2
On the technique in general: Ellman's reagent forms a yellow product with free thiols.

[3] abbreviates: 0.5 mM test compound, mean with SEM.
Setting [4] is: mean with SEM, read-out: AChE Inhibition, IC50.
The mark [5] stands for this setting: mean with SEM, read-out: BChE Inhibition, IC50.

T1 sequence (P22303 32-614): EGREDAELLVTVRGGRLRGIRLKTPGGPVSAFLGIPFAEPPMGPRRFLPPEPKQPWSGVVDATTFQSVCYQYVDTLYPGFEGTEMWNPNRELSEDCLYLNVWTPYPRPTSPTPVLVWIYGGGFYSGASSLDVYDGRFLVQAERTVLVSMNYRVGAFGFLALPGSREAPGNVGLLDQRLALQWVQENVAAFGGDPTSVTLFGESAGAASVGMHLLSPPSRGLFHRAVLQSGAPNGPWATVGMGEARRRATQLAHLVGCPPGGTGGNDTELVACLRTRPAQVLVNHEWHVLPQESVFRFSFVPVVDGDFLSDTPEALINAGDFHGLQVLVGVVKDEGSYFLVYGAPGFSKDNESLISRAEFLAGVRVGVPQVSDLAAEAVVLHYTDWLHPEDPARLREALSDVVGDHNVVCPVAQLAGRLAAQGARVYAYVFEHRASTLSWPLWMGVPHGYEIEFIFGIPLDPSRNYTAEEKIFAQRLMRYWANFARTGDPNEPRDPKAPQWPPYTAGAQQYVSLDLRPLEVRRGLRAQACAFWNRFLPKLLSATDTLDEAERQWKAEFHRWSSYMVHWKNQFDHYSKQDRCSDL
T2 sequence (P06276 29-602): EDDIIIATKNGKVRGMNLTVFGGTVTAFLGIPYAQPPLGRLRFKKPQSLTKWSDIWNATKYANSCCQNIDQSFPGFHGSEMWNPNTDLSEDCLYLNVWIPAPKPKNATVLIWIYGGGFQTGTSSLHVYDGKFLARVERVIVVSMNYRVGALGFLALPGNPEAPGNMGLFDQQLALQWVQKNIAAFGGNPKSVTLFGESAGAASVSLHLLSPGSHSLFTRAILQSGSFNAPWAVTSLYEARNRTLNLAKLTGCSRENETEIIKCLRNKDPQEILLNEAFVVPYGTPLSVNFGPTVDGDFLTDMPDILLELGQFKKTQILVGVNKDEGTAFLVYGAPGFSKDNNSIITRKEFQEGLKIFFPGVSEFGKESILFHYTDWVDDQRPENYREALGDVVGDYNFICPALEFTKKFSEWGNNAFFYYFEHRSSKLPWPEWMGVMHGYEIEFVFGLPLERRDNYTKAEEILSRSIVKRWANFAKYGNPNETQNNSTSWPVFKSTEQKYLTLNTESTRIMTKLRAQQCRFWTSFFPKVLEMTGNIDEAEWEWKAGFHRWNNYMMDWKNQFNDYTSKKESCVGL

Turning to `Cc1ccc(/C=N/NC(=O)Cc2c[nH]c3ccccc23)cc1` [Compound 4d], the values for the inhibition at 500 µM in assay [1] (setting [3]) and in assay [2] (setting [3]) were 79.54 ± 0.54% and 43.6 ± 0.55%, respectively. For the same compound, in assay [1] (setting [4]), the IC50 was determined as 98.81 ± 0.14 µM. Further, the “inhibitory activity against BChE (in words)” value in assay [2] was “weak”.

`O=C(Cc1c[nH]c2ccccc12)NN=C(c1ccccc1)c1ccccc1` [Compound 4f]: the inhibition at 500 µM in assay [1] (setting [3]) was 89.3 ± 0.91%; in assay [2] (setting [3]), 89.51 ± 0.69%. In addition, the 50% inhibitory concentration (IC50) in assay [1] (setting [4]) was determined as 91.21 ± 0.06 µM; in assay [2] (setting [5]), 59.81 ± 0.06 µM.

With `Cc1ccc(S(=O)(=O)NNC(=O)Cc2c[nH]c3ccccc23)cc1` [Compound 6a, N'-(2-(1H-Indol-3-yl)acetyl)-4-methylbenzenesulfonohydrazide], the results for the inhibition at 500 µM in assay [1] (setting [3]) and in assay [2] (setting [3]) were 78.11 ± 0.36% and 72.52 ± 0.33%, respectively. Moreover, the results for the 50% inhibitory concentration (IC50) in assay [1] (setting [4]) and in assay [2] (setting [5]) were 121.4 ± 0.16 µM and 101.2 ± 0.16 µM, respectively.

With `O=C(Cc1c[nH]c2ccccc12)NNS(=O)(=O)c1cccc([N+](=O)[O-])c1` [Compound 6c, N'-(2-(1H-Indol-3-yl)acetyl)-3-nitrobenzenesulfonohydrazide], the “inhibitory activity against AChE (in words)” value in assay [1] is “weak”. The results for the inhibition at 500 µM in assay [1] (setting [3]) and in assay [2] (setting [3]) were 56.21 ± 0.25% and 81.24 ± 0.52%, respectively. Further, in assay [2] (setting [5]), the IC50 is 78.51 ± 0.21 µM.

With `O=C(Cc1c[nH]c2ccccc12)NNS(=O)(=O)c1ccccc1[N+](=O)[O-]` [Compound 6b, N'-(2-(1H-Indol-3-yl)acetyl)-2-nitrobenzenesulfonohydrazide], the “inhibitory activity against AChE (in words)” value in assay [1] is listed as “weak”. Also, the inhibition at 500 µM was 46.41 ± 0.21% in assay [1] (setting [3]) and 42.61 ± 0.42% in assay [2] (setting [3]). Moreover, the “inhibitory activity against BChE (in words)” value in assay [2] is “weak”.

On to `COC(=O)Cc1c[nH]c2ccccc12` [Compound 2], for which the inhibition at 500 µM in assay [1] (setting [3]) amounted to 70.61 ± 0.34%; in assay [2] (setting [3]), 59.82 ± 0.15%. In addition, the IC50 turned out to be 138.5 ± 0.21 µM in assay [1] (setting [4]) and 184.2 ± 0.21 µM in assay [2] (setting [5]).

`O=C(Cc1c[nH]c2ccccc12)N/N=C/c1ccc(Cl)cc1` [Compound 4g]: the inhibition at 500 µM in assay [1] (setting [3]) was 75.79 ± 0.25%; in assay [2] (setting [3]), 30.1 ± 0.58%. Further, in assay [1] (setting [4]), the 50% inhibitory concentration (IC50) was 106.51 ± 0.07 µM.

As to `COc1ccc(/C=N/NC(=O)Cc2c[nH]c3ccccc23)cc1` [Compound 4c], the results for the inhibition at 500 µM in assay [1] (setting [3]) and in assay [2] (setting [3]) were 75.5 ± 0.56% and 50.2 ± 0.69%, respectively. In assay [1] (setting [4]), the 50% inhibitory concentration (IC50) was 109.6 ± 0.11 µM.

`O=C(Cc1c[nH]c2ccccc12)NNC(=O)Oc1ccccc1` [Compound 5c, Phenyl 2-(2-(1H-indol-3-yl)acetyl)hydrazinecarboxylate]: in assay [1], the “inhibitory activity against AChE (in words)” value is “weak” and the inhibition at 500 µM was found to be 55.91 ± 0.33%. Further, in assay [2], the “inhibitory activity against BChE (in words)” value is listed as “weak” and the inhibition at 500 µM was determined as 39.29 ± 0.25%.

Turning to `O=C(Cc1c[nH]c2ccccc12)N/N=C/c1ccccc1` [Compound 4a], the inhibition at 500 µM was 63.11 ± 0.52% in assay [1] (setting [3]) and 79.58 ± 0.42% in assay [2] (setting [3]). In addition, the IC50 amounted to 198.61 ± 0.14 µM in assay [1] (setting [4]) and 86.31 ± 0.14 µM in assay [2] (setting [5]).

Turning to `NNC(=O)Cc1c[nH]c2ccccc12` [Compound 3], in assay [1], the IC50 stood at 152.11 ± 0.07 µM and the inhibition at 500 µM was 69.16 ± 0.25%. In addition, in assay [2], the IC50 stood at 139.21 ± 0.07 µM and the inhibition at 500 µM was determined as 73.95 ± 0.67%.

With `O=C(Cc1c[nH]c2ccccc12)NNS(=O)(=O)c1ccc(Br)cc1` [Compound 6e, N'-(2-(1H-indol-3-yl)acetyl)-4-bromobenzenesulfonohydrazide], the inhibition at 500 µM stood at 90.78 ± 0.32% in assay [1] (setting [3]) and 81.02 ± 0.14% in assay [2] (setting [3]). For the same compound, the half-inhibitory concentration (IC50) in assay [1] (setting [4]) was 68.52 ± 0.04 µM; in assay [2] (setting [5]), 73.52 ± 0.04 µM.

Consider `O=C(Cc1c[nH]c2ccccc12)N/N=C/c1ccccc1O` [Compound 4b], for which the inhibition at 500 µM came out at 75.5 ± 0.33% in assay [1] (setting [3]) and 43.16 ± 0.18% in assay [2] (setting [3]). Moreover, in assay [1] (setting [4]), the IC50 came to 103.11 ± 0.05 µM. Also, the “inhibitory activity against BChE (in words)” value in assay [2] is reported as “weak”.

Consider `CC(=O)NNC(=O)Cc1c[nH]c2ccccc12` [Compound 5a, N'-acetyl-2-(1H-indol-3-yl)acetohydrazide], for which the inhibition at 500 µM was determined as 60.52 ± 0.25% in assay [1] (setting [3]) and 90.81 ± 0.69% in assay [2] (setting [3]). For the same compound, the 50% inhibitory concentration (IC50) in assay [1] (setting [4]) is 298.61 ± 0.15 µM; in assay [2] (setting [5]), 55.21 ± 0.12 µM.

On to `C/C(=N\NC(=O)Cc1c[nH]c2ccccc12)c1ccccc1` [Compound 4e], for which the inhibition at 500 µM was 66.86 ± 0.36% in assay [1] (setting [3]) and 68.43 ± 0.18% in assay [2] (setting [3]). Moreover, the IC50 in assay [1] (setting [4]) worked out at 174.51 ± 0.11 µM; in assay [2] (setting [5]) it was 146.21 ± 0.08 µM.

For the compound `O=C(Cc1c[nH]c2ccccc12)NNC(=O)C(F)(F)F` [Compound 5b, N'-(2-(1H-indol-3-yl)acetyl)-2,2,2-trifluoroacetohydrazide], the inhibition at 500 µM in assay [1] (setting [3]) came out at 75.22 ± 0.41%; in assay [2] (setting [3]) it was 86.64 ± 0.24%. Besides, the values for the IC50 in assay [1] (setting [4]) and in assay [2] (setting [5]) were 152.31 ± 0.07 µM and 68.91 ± 0.07 µM, respectively.

With `O=C(Cc1c[nH]c2ccccc12)NNS(=O)(=O)c1ccc([N+](=O)[O-])cc1` [Compound 6d, N'-(2-(1H-Indol-3-yl)acetyl)-4-nitrobenzenesulfonohydrazide], the “inhibitory activity against AChE (in words)” value in assay [1] was “weak”. The values for the inhibition at 500 µM in assay [1] (setting [3]) and in assay [2] (setting [3]) were 58.62 ± 0.52% and 63.69 ± 0.61%, respectively. For the same compound, in assay [2] (setting [5]), the IC50 is under 400 µM.

The values above are taken from publication PMC3977535, “Design and Synthesis of New Dual Binding Site Cholinesterase Inhibitors: in vitro Inhibition Studies with in silico Docking” (Letters in Drug Design & Discovery, 2014).
